Results reported in patent US20160213647A1, “COMPOSITIONS AND METHODS FOR INHIBITING VIRAL INFECTION” (priority 2015, published 2016).
Read-outs that look alike come from different tables or passages of the source.

What was measured:
[1] = test system: Peripheral Blood Mononuclear Cells (PBMCs); conditions: human
[2] = in vitro; conditions: human
[3] = in vitro; conditions: human; remark: listed apart in the source
[4] = test system: HIV-1 91US001; assay: microbe, parasite or virus in culture; conditions: Human immunodeficiency virus 1, PBMC
[5] = test system: HIV-1 92HT599; assay: microbe, parasite or virus in culture; conditions: Human immunodeficiency virus 1, PBMC
[6] = test system: HIV-2 CBL20 H9; assay: microbe, parasite or virus in culture; conditions: Human immunodeficiency virus 2, PBMC
[7] = test system: HIV-2 CDC 310319; assay: microbe, parasite or virus in culture; conditions: Human immunodeficiency virus 2, PBMC
[8] = test system: HIV-1 isolate NL4-3; assay: microbe, parasite or virus in culture; conditions: Human immunodeficiency virus 1, NL43, PBMC
[9] = test system: HIV-1 isolate MDR807; assay: microbe, parasite or virus in culture; conditions: Human immunodeficiency virus 1, PBMC
[10] = test system: HIV-1 isolate A17; assay: microbe, parasite or virus in culture; conditions: Human immunodeficiency virus 1, PBMC
[11] = test system: HIV-1 isolate 1022-48; assay: microbe, parasite or virus in culture; conditions: Human immunodeficiency virus 1, PBMC
[12] = test system: HIV-1 isolate 4736_4; assay: microbe, parasite or virus in culture; conditions: Human immunodeficiency virus 1, PBMC
[13] = test system: HIV-1 MDR 769; assay: microbe, parasite or virus in culture; conditions: Human immunodeficiency virus 1, PBMC
[14] = test system: HIV-1 isolate MDR769; assay: microbe, parasite or virus in culture; conditions: Human immunodeficiency virus 1, PBMC
[15] = test system: A/Udorn/72 (H3N2); assay: microbe, parasite or virus in culture; type: cell-based; conditions: Influenza A virus, H3N2, HEK-293T
[16] = test system: A/Ca/07/09 (H1N1); assay: microbe, parasite or virus in culture; type: cell-based; conditions: Influenza A virus, H1N1, HEK-293T
[17] = in vitro; conditions: human; remark: listed apart in the source
[18] = test system: CHIKV 899 wild-type; assay: Chikungunya virus-induced cell death (CPE, MTS/PMS) assay in Vero A cells; conditions: Chikungunya virus, Vero, read-out: EC50 WT
[19] = test system: HIV-1 isolate NL4-3
[20] = test system: human PBMCs

## Cc1cn([C@H]2C[C@H](N=[N+]=[N-])[C@@H](CO)O2)c(=O)[nH]c1=O [AZT, azidothymidine]
[1]
  CC50: > 1 µM
[2]
  CC50: > 1 µM
[3]
  CC50: > 1 µM
[4]
  IC50: 0.0174 µM
[5]
  IC50: 0.0119 µM
[6]
  IC50: < 0.0001 µM
[7]
  IC50: 0.00573 µM
[8]
  IC90: 0.00996 µM
[8]; read-out: IC50
  IC90: 0.0396 µM
[9]
  IC90: 0.162 µM
[9]; read-out: IC50
  IC90: > 1 µM
[10]
  IC90: 0.0116 µM
[10]; read-out: IC50
  IC90: 0.0274 µM
[11]
  IC50: > 1 µM
  IC90: > 1 µM
[12]
  IC90: 0.00257 µM
[12]; read-out: IC50
  IC90: 0.0206 µM

## CC(C)Nc1cccnc1N1CCN(C(=O)c2cc3cc(NS(C)(=O)=O)ccc3[nH]2)CC1 [Delavirdine]
[3]
  CC50: > 2 µM
[8]
  IC90: 0.0306 µM
[8]; read-out: IC50
  IC90: 0.0576 µM
[10]
  IC50: > 2 µM
  IC90: > 2 µM

## O=C1Nc2ccc(Cl)cc2[C@@](C#CC2CC2)(C(F)(F)F)O1 [Efavirenz]
[1]
  CC50: > 1 µM
[2]
  CC50: > 1 µM
[13]
  IC50: 0.00066 µM

## COc1cc2c(cc1Cc1cccc(Cl)c1F)c(=O)c(C(=O)O)cn2[C@H](CO)C(C)C [Elvitegravir]
[3]
  CC50: > 1 µM
[8]
  IC90: 0.00052 µM
[8]; read-out: IC50
  IC90: 0.00125 µM
[12]
  IC90: 0.0819 µM
[12]; read-out: IC50
  IC90: 0.251 µM

## Cc1cccc(C)c1OCC(=O)N[C@@H](Cc1ccccc1)[C@@H](O)C[C@H](Cc1ccccc1)NC(=O)[C@H](C(C)C)N1CCCNC1=O [Lopinavir]
[1]; 7 days
  CC50: > 1 µM
[2]
  CC50 at 7 days: > 1 µM
[13]
  IC50: 0.827 µM

## Cc1ccnc2c1NC(=O)c1cccnc1N2C1CC1 [Nevirapine]
[3]
  CC50: > 10 µM
[8]
  IC90: 0.0753 µM
[8]; read-out: IC50
  IC90: 0.227 µM
[10]
  IC50: > 10 µM
  IC90: > 10 µM
[11]
  IC90: 0.0704 µM
[11]; read-out: IC50
  IC90: 0.242 µM

## Cc1nnc(C(=O)NC(C)(C)c2nc(C(=O)NCc3ccc(F)cc3)c(O)c(=O)n2C)o1 [Raltegravir, raltegravir]
[3]
  CC50: > 0.1 µM
[8]
  IC90: 0.0013 µM
[8]; read-out: IC50
  IC90: 0.00518 µM
[14]
  IC90: 0.00364 µM
[14]; read-out: IC50
  IC90: 0.00895 µM
[9]
  IC90: 0.00046 µM
[9]; read-out: IC50
  IC90: 0.00216 µM
[12]
  IC90: 0.0745 µM
[12]; read-out: IC50
  IC90: > 0.1 µM

## NC(=O)c1ncn([C@@H]2O[C@H](CO)[C@@H](O)[C@H]2O)n1 [Ribavirin, reference compound]
[15]
  EC50: 5.24 µM
[16]
  EC50: 12.8 µM
[17]
  CC50: > 100 µM

## CC(C)c1nc(CN(C)C(=O)N[C@H](C(=O)N[C@@H](Cc2ccccc2)C[C@H](O)[C@H](Cc2ccccc2)NC(=O)OCc2cncs2)C(C)C)cs1 [Ritonavir, ritonavir]
[8]
  IC90: 0.0455 µM
[8]; read-out: IC50
  IC90: 0.0923 µM
[9]
  IC90: 1.28 µM
[9]; read-out: IC50
  IC90: 5.94 µM
[11]
  IC50: > 10 µM
  IC90: > 10 µM

## NC(=O)c1nc(F)c[nH]c1=O [T-705, favipiravir, reference compound]
[18]
  EC50: 7.4 µM

## Enfuvirtide
[19]
  IC50: 0.412 µM
  IC90: 0.133 µM

## enfuvirtide
[20]
  CC50: > 2 µM
